Assay results as given in patent US4419123A, “Herbicidal 4-trifluoromethyl-3'-carbon-substituted-4'-substituted diphenyl ethers” (Rohm and Haas Company, priority 1981, dated 1983).

Experiments:
[1] = Preemergence herbicidal activity (% control) against dicot weeds; settings: pre-emergence, 336 h
[2] = Postemergence herbicidal activity (% control) against monocot weeds; format: in vivo; settings: post-emergence, 336 h, average, read-out: Herbicidal activity (% control), postemergence, monocots
Description: (§1) barnyardgrass (Echinochloa crusgalli) crabgrass (Digitaria spp.) nutsedge (Cyperus esculentus)
(§2) At 2 and 4 pounds per acre:
(§3) **Bermudagrass (Cynodon dactylon)
(§4) *downy brome (Bromus tectorum) foxtail (Setaria faberii)
(§5) Johnsongrass (Sorghum halepense) […]
(§6) quackgrass (Agropyron repens)
(§7) *ryegrass (Lolium perenne)
(§8) *wild oats (Avena factua)
(§9) *yellow millet (Panicum miliaceum)
(§10) The following test procedure is employed.

[3] = Preemergence herbicidal activity (% control) against monocot weeds; format: in vivo; settings: pre-emergence, 336 h, average, read-out: Herbicidal activity (% control), preemergence, monocots
Description: as §1, §2, §3, §4, §5, §6, §7, §8, §9, §10

safflower = assay: Crop tolerance (selective herbicidal activity), safflower; format: in vivo; settings: preemergence applications
Protocol: as §10
(§11) Following the general test procedure of Example 37, diphenyl ethers are evaluated for significant tolerance (as shown by 50% or less kill of the test crop at levels of application which give more than 50% kill of many or all of the weeds of Example 73) towards some or all of the following common agronomic crops (not all compounds tested against all crops): alfalfa, snapbeans, corn, cotton, cucumbers, peanuts, rape, rice, safflower, soybeans, tomatoes, and wheat.

rice = assay: Crop tolerance (selective herbicidal activity), rice; format: in vivo; settings: postemergence applications or applications on transplanted rice
cotton = assay: Crop tolerance (selective herbicidal activity), cotton; format: in vivo
Protocol: as §10, §11

[4] = Postemergence herbicidal activity (% control) against dicot weeds; settings: post-emergence, 336 h
peanuts = assay: Crop tolerance (selective herbicidal activity), peanuts; format: in vivo; settings: preemergence applications
soybeans = assay: Crop tolerance (selective herbicidal activity), soybeans; format: in vivo
[5] = 4 lb./A., about two weeks after application
[6] = 10 lb./A., about two weeks after application
[7] = postemergence or layby applications

CCOc1cc(Oc2ccc(C(F)(F)F)cc2Cl)ccc1[N+](=O)[O-] [Example 3, 2-Chloro-α,α,α-trifluoro-p-tolyl-3-ethoxy-4-nitrophenyl ether]
pest or weed control at 280.212 g/ha ([1]; read-out: Herbicidal activity (% control), preemergence, dicots): 66%
activity at 4483.4 g/ha ([1]; read-out: Herbicidal activity (% control), preemergence, dicots, 4 lb./A., average, about two weeks after application): 99%
activity at 11208.5 g/ha ([1]; read-out: Herbicidal activity (% control), preemergence, dicots, 10 lb./A., average, about two weeks after application): 100%
pest or weed control at 560.425 g/ha ([2]; 1/2 lb./A. (footnote +)): 96%
activity at 4483.4 g/ha [2, 5]: 99%
activity at 11208.5 g/ha [2, 6]: 100%
pest or weed control at 280.212 g/ha ([3]; 1/4 lb./A.): 84%
activity at 4483.4 g/ha [3, 5]: 89%
activity at 11208.5 g/ha [3, 6]: 99%
Tolerance to safflower (safflower): Tolerance (significant tolerance (as shown by 50% or less kill of the test crop at levels of application which give more than 50% kill of many or all of the weeds of Example 73))
Tolerance to rice (rice): Tolerance (significant tolerance (as shown by 50% or less kill of the test crop at levels of application which give more than 50% kill of many or all of the weeds of Example 73))
Tolerance to cotton (cotton; [7]): Tolerance (significant tolerance (as shown by 50% or less kill of the test crop at levels of application which give more than 50% kill of many or all of the weeds of Example 73))
Tolerance to cotton (cotton; preemergence applications): Tolerance (significant tolerance (as shown by 50% or less kill of the test crop at levels of application which give more than 50% kill of many or all of the weeds of Example 73))
pest or weed control at 560.425 g/ha ([4]; read-out: Herbicidal activity (% control), postemergence, dicots): 97%
activity at 4483.4 g/ha ([4]; read-out: Herbicidal activity (% control), postemergence, dicots, 4 lb./A., average, about two weeks after application): 100%
activity at 11208.5 g/ha ([4]; read-out: Herbicidal activity (% control), postemergence, dicots, 10 lb./A., average, about two weeks after application): 100%
Tolerance to peanuts (peanuts): Tolerance (significant tolerance (as shown by 50% or less kill of the test crop at levels of application which give more than 50% kill of many or all of the weeds of Example 73))
Tolerance to soybeans (soybeans; [7]): Tolerance (significant tolerance (as shown by 50% or less kill of the test crop at levels of application which give more than 50% kill of many or all of the weeds of Example 73))
Tolerance to soybeans (soybeans; preemergence applications): Tolerance (significant tolerance (as shown by 50% or less kill of the test crop at levels of application which give more than 50% kill of many or all of the weeds of Example 73))
